Patent publication US12285433B2, “Diltiazem for use in the treatment of microbial infections” (UNIVERSITE CLAUDE BERNARD LYON 1, priority 2018, dated 2025)

Assays:
[1] = test system: respiratory syncytial virus (Long strain, ATCC VR-26); assay: RSV replication in infected reconstituted human respiratory epithelia (RT-qPCR, F gene); assay type: cell-based; settings: MOI 1; 90 μM basolateral, 4 administrations from 5 hpi; 6 days post-infection
Protocol: Reconstituted human respiratory epithelia (MucilAir® HAE, Epithelix) were maintained in culture at the air-liquid interface according to the instructions of the supplier Epithelix and were infected with respiratory syncytial virus (Long strain, ATCC VR-26) at a multiplicity of infection (MOI) 1, then treated or not with diltiazem (90 μM) via their culture medium at their basolateral pole. Diltiazem treatment was performed at 5 hours post-infection and then repeated for 3 consecutive days (4 administrations in total).
At 6 days post-infection, samples at the apical pole of treated and untreated infected epithelia, as well as the epithelia themselves, were lysed with 150 μL of RLT buffer (Qiagen). The process of the experiment is schematically represented in FIG. 4A.
Total RNA was extracted using the RNeasy Kit (Qiagen), according to the supplier's instructions, for quantification of viral genome copy number (F gene) by RT-qPCR at the apical pole, i.e. in the supernatant (FIG. 4B), as well as in the epithelia (FIG. 4C).

[2] = test system: respiratory syncytial virus (RSV); assay: RSV challenge infection in BALB/c mouse model, pulmonary viral titers by RT-qPCR (F gene); assay type: in vivo; settings: BALB/c mice, 5×10^5 PFU RSV intranasally; 50 mg/kg per os, 5 treatments; day 5 post-infection
Protocol: FIG. 4D schematically represents the chronology of infection and treatment of the mice: • BALB/c mice were randomized into 3 groups of 5 individuals and then infected intranasally with 50 μL of a viral suspension containing 5×10^5 PFU of RSV (Day 0). Six hours before infection, the mice were treated with either 40 mg/kg intraperitoneal ribavirin (RSV RIB) or 50 mg/kg diltiazem peros (RSV DIL), or PBS (RSV PBS) as negative control. • The same treatments were repeated every 24 h, with a total of 3 treatments for ribavirin and 5 treatments for diltiazem or PBS. • On day 5 post-infection (D5, corresponding to the peak of viral replication), the mice in each group were euthanized and their lungs were aseptically recovered to measure their pulmonary viral titers by RTqPCR (F gene).
RT-qPCR quantification of the RSV viral genome copy number (quantifying the copies of the F gene) relative to the total amount of RNA extracted from the lungs at 5 days post-infection was performed, and the results are presented in FIG. 4E.
The following statistical tests were used: One-way ANOVA with Bonferroni post-test to compare each virus to the mock condition (PBS treatment). *p<0.05.

[3] = test system: IFIT1, IFIT2, IFIT3, IF127, IFN-λ1, IFN-λ2, IF144L and IFITM1 genes; assay: RT-qPCR confirmation of induction of 8 genes associated with the type III interferon response; assay type: cell-based, human; settings: 90 μM via basolateral pole, 3 days
[4] = test system: genes encoding the type III interferons IFN-λ1, IFN-λ2 and IFN-λ3; assay: RNAseq expression of type III interferon genes and response genes, basolateral treatment of reconstituted human respiratory epithelia (MucilAir HAE); assay type: cell-based; settings: 90 μM via basolateral pole, 3 days (3 administrations)
Protocol: (§1) Reconstituted human respiratory epithelia (MucilAir® HAE, Epithelix) maintained in culture at the air-liquid interface according to the instructions of the supplier Epithelix, were treated or not with diltiazem (90 μM) via their culture medium at their basolateral pole. The diltiazem treatment was repeated for 3 consecutive days (3 administrations in total).
Treated and untreated epithelia were then lysed with 150 μL of RLT buffer (Qiagen). […] Each library was amplified, quantified and indexed with primers provided in the ScriptSeq™ Index PCR Primers Kit (RSBC10948, Epicentre) and sequenced. Sequencing was conducted on an Illumina HiSeq 2500 system with a minimum requirement of 40 million “reads” sequenced per sample.
The demultiplexing of the data and the conversion of the BCL files resulting from the sequencing into FASTQ files were carried out using Illumina's bcl2fastq tool, in its version 1.8.4. […] A pseudo-alignment of the trimmed reads on the human genome (Homo Sapiens: GRCh38.p11) using the Kallisto software was performed, followed by a statistical analysis using the R 3.3.1 software and the EdgeR 3.14.0 package.
The differential in gene expression between epithelial cells treated with diltiazem and control epithelial cells was calculated using a linear model with a p-value correction by the Benjamini-Hochberg method. […]

[5] = test system: human parainfluenza virus type 3 (strain C243 ATCC VR-93); assay: hPIV-3 replication in reconstituted human respiratory epithelia (cytopathic effect, TEER, TCID50 titration in LLC-MK2 cells); assay type: cell-based; settings: MOI 0.1, 90 μM basolateral daily
Protocol: Reconstituted human respiratory epithelia were infected with human parainfluenza virus type 3 (strain C243 ATCC VR-93) at an MOI of 0.1, and treatment of the basolateral medium with 90 μM diltiazem was started 2 hours post-infection and continued daily for 4 consecutive days. Transepithelial electrical resistance (TEER), which reflects the integrity of the epithelium, was measured once daily from 48 h post-infection to 120 hours post-infection.
Apical infectious viral titers (TCID50/mL) were determined in LLC-MK2 cells from washings collected starting 48 h post-infection (hpi), and up to 120 hpi, as shown in FIG. 5A.

[6] = test system: IFN-λ2 (IFNL2) gene; assay: In vivo induction of IFN-λ2 (IFNL2) gene expression after intranasal instillation in BALB/c mice (RT-qPCR); settings: 20 mg/kg intranasal, D0/D1/D2 or D0/D2/D4, sampled D5
[7] = test system: interferon lambda 1 (IL-29); assay: ELISA measurement of interferon lambda 1 (IL-29) secretion by reconstituted human respiratory epithelia; assay type: cell-based; settings: ELISA after 72 h; 90 μM via basolateral pole, 3 administrations
Protocol: as §1, with “Epithelix) were” for “Epithelix)”, “Epithelix and” for “Epithelix,”
Secretion levels (pg/mL) of interferon lambda 1 (IL-29) at the apical and basolateral poles of human respiratory epithelia treated and untreated with diltiazem were measured by ELISA after 72 h of treatment according to the supplier's instructions (#3570-1H, Mabtech, Stockholm, Sweden).

[8] = test system: recombinant hMPV-GFP virus (strain C-85473); assay: hMPV replication in reconstituted human respiratory epithelia (GFP epifluorescence, RT-qPCR of N gene); assay type: cell-based, human metapneumovirus; settings: MOI 0.1
Protocol: Viral replication in reconstituted human epithelial models (MucilAir® HAE, Epithelix) of nasal origin was studied on epithelia treated or not treated with diltiazem. To that end, (i) fluorescence light microscopy photos were used to evaluate the efficacy and progression of the infection and (ii) quantification of the viral genome by RTqPCR was performed, on the one hand at the apical pole of the epithelium (surface harvesting) to quantify the excretion of viral progeny, and on the other hand in the total lysates of epithelial cells at end point (day 5 post-infection) to quantify intracellular viral replication within the epithelium.
Human respiratory epithelia (Mucilair, Epithelix) were infected with a recombinant hMPV-GFP virus (strain C-85473) at an MOI of 0.1, then treated (via the basolateral medium of the epithelia) or not with 3 successive doses of diltiazem at 90 μM at D0, D1 and D3 post-infection (3 epithelia per condition).
Epifluorescence microscopy observations were performed on D4 post-infection to observe the impact of diltiazem treatment on viral replication (FIG. 7B).
On day 3 post-infection, a wash at the apical pole of the infected epithelium, treated or not, was performed in order to harvest the viral progeny produced. The genomic viral RNA was extracted and quantified by RT-qPCR (Biosystems™ PowerUp™ SYBR™ Green, Thermo Fisher Scientific) using a plasmid containing the HMPV N gene. The results are expressed in copies of the N gene/μg RNA extracted (FIG. 7C).
On day 5 post-infection, epithelial cells were harvested and lysed to extract total RNA. Total RNAs corresponding to the hMPV N viral gene were quantified by Rt-qPCR (Biosystems™ PowerUp™ SYBR™ Green, Thermo Fisher Scientific), using a range made from a plasmid containing the HMPV N gene. The results are expressed in copies of the N gene/μg RNA extracted (FIG. 7D).

How did the “amount of RSV viral genome (F gene) in the culture supernatant (apical pole) compared with untreated epithelia” value [1] turn out when `COc1ccc([C@@H]2Sc3ccccc3N(CCN(C)C)C(=O)[C@@H]2OC(C)=O)cc1` [diltiazem] was run?
Its value is “much lower”.

What about the “amount of RSV viral genome (F gene) in the epithelium compared with untreated epithelia” value [1] of the same molecule?
Its value is “much lower”.

And the “pulmonary viral titers (RSV F gene copies, RT-qPCR) compared with PBS control group and ribavirin-treated group” value [2]?
The value was “significantly reduced pulmonary viral titers”.

And the “expression of the IFIT1, IFIT2, IFIT3, IF127, IFN-λ1, IFN-λ2, IF144L and IFITM1 genes compared with untreated epithelia” value [3]?
The value was “significant increase”.

What about the “expression of type III interferon response genes (IF144L, IFIT1, IFIT2, IFIT3, IFITM1, ISG15, MX1, MX2, OAS1, OAS2, OAS3, OASL, RSAD2, STAT1)” value [4] of the same molecule?
The value was “significantly stimulates the expression”.

What about the “transepithelial electrical resistance (TEER), integrity of the epithelium” value ([5]; 48 to 120 hpi) of the same molecule?
Its value is “integrity appears to be more preserved”.

What about the “cytopathic effects induced by hPIV-3 (microscopy)” value ([5]; 96 and 120 hpi) of the same molecule?
The value was “greater and easily visible microscopically in untreated reconstituted human respiratory epithelia, unlike those treated with diltiazem”.

And the “infectious viral titer at the apical surface at 96 h post-infection” value ([5]; untreated 10^7)?
Its value is 10^5 TCID50/mL.

And the “IFN-λ2 (IFNL2) gene expression in nasal cavities relative to mock-treated mice” value [6]?
The value was “activates the IFN III pathway”.

What about the “IFN-λ1 (IL-29) secretion at the apical pole” value [7] of the same molecule?
The value was “very sharply increased”.

What about the “IFN-λ1 (IL-29) secretion at the basolateral pole” value [7] of the same molecule?
The value was “significant, but less marked, increase”.

And the “fluorescence corresponding to viral expression of GFP (epifluorescence microscopy)” value ([8]; 90 μM basolateral at D0, D1, D3, D4 post-infection)?
Its value is “very few fluorescent cells”.

And the “reduction of viral genome (N gene) in epithelia (total lysate) versus untreated epithelia” value ([8]; 90 μM basolateral at D0, D1, D3, day 5 post-infection)?
Its value is 4 log 10.

What about the “reduction of viral genome (N gene) in apical supernatants versus untreated epithelia” value ([8]; 90 μM basolateral, day 3 post-infection) of the same molecule?
Its value is 2 log 10.
